Experimental findings from patent US6518412B1, “Gene therapy approaches to supply apolipoprotein A-I agonists and their use to treat dyslipidemic disorders” (priority 1997, dated 2003) are described below.

Where no end group is shown, it is not given here.

Test [1] deals with EPC/Chol (20:1) small unilamellar vesicles. The experiment in a line: Lipid binding by fluorescence spectroscopy. Here is the method: The lipid binding properties of the peptides described in Section 6, supra, were tested by fluorescence measurements with labeled peptides, in the present case Tryptophane (Trp or W) or Naphtylalanine (Nal). The fluorescence spectra were recorded on a Fluoromax from Spex (Jobin-Yvon) equipped with a Xenon lamp of 150W, two monochromators (excitation and emission), a photomultiplier R-928 for detection sensitive in the red up to 850 nm and a thermoelectric magnetic stirred cell holder. Quartz Suprasil cuvettes were used for measurements in the micromolar concentration range. A device of variable slits (from 0.4 to 5 nm) allows modulation of the incident and emitted intensities according to the concentration of peptide used. The reported values are in general the average of between 2 to 4 spectra. The peptide concentration is determined by absorption spectrometry on a Philips PU 8800 using the absorption band of the Trp (∈280 nm=5,550 M^−1 cm^−1 in Tris buffer) or the Nal (∈224 nm=92,770 M^−1 cm^−1 in methanol).
Fluorescence spectra of the peptides were recorded between 290 nm and 450 nm in Tris-HCl buffer (20 mM, pH=7.5), in the presence and absence of lipidic vesicles. The small unilamellar vesicles were formed after rehydration in buffer of the lyophilized phospholipids, dispersion and tip sonification under a N2 stream. The lipids used were either Egg PC/Chol. (20:1) or POPC/Chol. (20:1). The spectra were recorded at a peptide concentration of 2 μM and at a temperature of 37° C. The fluorescence reference standard in the case of Trp was N-acetyltryptophanylamide (NATA).
Lipid binding studies were done through progressive lipidic vesicle addition to the peptide in solution at 2 μM (slits:5 nm in excitation and 1.5 nm in emission). Dilution effects were taken into account for the fluorescence intensity determination. The lipid concentrations were varied from 10 to 600 μM and the molar ratio of lipid to peptide (Ri) was varied from 5 to 300. The wavelength of excitation was set at 280 nm for both Trp and Nal.
The data were directly recorded and treated by an IBM-PC linked to the spectrofluorimeter through the DM3000F software from Spex. The spectra were corrected by substraction of the solvent contribution and by application of a coefficient given by the constructor taking into account the variation of the photomultiplier response versus the wavelength.
The fluorescence spectra of the peptides were characterized by the wavelength at their maximum of fluorescence emission and by their quantum yield compared to NATA in the case of peptides labeled with a tryptophane. The process of binding to lipids was analyzed by calculating the shift of the wavelength at the maximum of fluorescence emission, (λmax), and the variation of the relative fluorescence intensity of emission versus the lipid concentration. The relative fluorescence intensity is defined as the following ratio: (I-I0)λmax/I0λmax. I and I0 are both measured at the (λmax) corresponding to the initial free state of the peptide, i.e., without lipids. I is the intensity at a defined lipid to peptide ratio and I0 is the same parameter measured in absence of lipids. The absence of these variations is relevant of the absence of interactions of the peptides with the lipids.

Test [2] in a line: HDL cholesterol in rabbits after injection of phospholipid/peptide complex. The test is classed as in vivo, Male New Zealand White rabbits. As to conditions: for Increase in HDL Cholesterol (%): 8 mg/kg i.v. as peptide/DPPC complexes. Here is the method:
Small discoidal particles consisting of phospholipid (DPPC) and peptide 146 (SEQ ID NO:146) were prepared following the cholate dialysis method. The phospholipid was dissolved in chloroform and dried under a stream of nitrogen. The peptide was dissolved in buffer (saline) at a concentration of 1-2 mg/ml. The lipid film was redissolved in buffer containing cholate (43° C.) and the peptide solution was added at a 3-1 phospholipid/peptide ratio. The mixture was incubated overnight at 43° C. and then dialyzed at 43° C. (24 hr.), room temperature (24 hr.) and 4° C. (24 hr.), with three changes of buffer (large volumes) at temperature point. The complexes were filter sterilized (0.22μ) for injection and storage at 4° C. The particles were separated on a gel filtration column (Superose 6 HR). The position of the peak containing the particles was identified by measuring the phospholipid concentration in each fraction. From the elution volume, the Stokes radius can was determined. The concentration of peptide in the complex was determined by determining the phenylalanine content (by HPLC) following a 16 hr. acid hydrolysis. Male New Zealand White rabbits (2.5-3 kg) were injected intravenously with a dose of phospholipid/peptide complex (8 mg/kg bodyweight peptide 146 (SEQ ID NO:146) or 10 mg/kg bodyweight ApoA-I, expressed as peptide or protein content) in a single bolus injection not exceeding 10-15 ml. The animals were slightly sedated before the manipulations. Blood samples (collected on EDTA) were taken before and 5, 15, 30, 60, 240 and 1440 minutes after injection. The hematocrit (Hct) was determined for each sample. Samples were aliquoted and stored at −20° C. before analysis. Plasma Lipids. The total plasma cholesterol, plasma triglycerides and plasma phospholipids were determined enzymatically using commercially available assays according to the manufacturer's protocols (Boehringer Mannheim, Mannheim, Germany and Biomérieux, 69280, Marcy-l'étoile, France). Lipoprotein Profiles. The plasma lipoprotein profiles of the fractions obtained after the separation of the plasma into its lipoprotein fractions were determined by spinning in a sucrose density gradient. The fractions were collected and in each individual fraction the phospholipid and cholesterol content was measured enzymatically.

For the compound `CC(=O)N[C@@H](Cc1c[nH]c2ccccc12)C(N)=O` [NATA, N-acetyltryptophanylamide, reference compound], the λmax in test [1] (Ri 0, in buffer, 2 μM) turned out to be 350 nm.

As for “PVLDLFRELWEELKQKLK* (not fully specified (N-terminus, C-terminus); printed as PVLDLFRELWEELKQKLK*; also: terminal modification marked *, not defined here) [peptide 199]”, the “lipid to peptide molar ratio at which burying of the tryptophane residue is maximal” value in test [1] (EPC/Chol (20:1) SUVs) is given as “about 100”. In addition, the λmax in test [1] (Ri 0, in buffer, 2 μM) is listed as 348 nm; in test [1] (Ri 5), 344 nm; in test [1] (Ri 10) it was 339 nm; in test [1] (Ri 30), 328 nm; in test [1] (Ri 100) it was 326 nm; in test [1] (Ri 200) it was 325 nm. Further, in test [1] (small unilamellar vesicles), the lipid binding result is on record as “binds very effectively”.

On to PVLELFENLLERLLDALQKKLK [peptide 146], for which the “Increase in HDL Cholesterol (%)” value in test [2] (5 min) came to 31.3%; in test [2] (15 min) it was 60.4%; in test [2] (60 min) it was 42.9%; in test [2] (240 min, 8 mg/kg), 90%; in test [2] (240 min, listed as Peptide 146, 8 mg/kg), 90.2%; in test [2] (1440 min), 71.2%. Also, the “duration of the increase in cholesterol of the HDL cholesterol fractions” value in test [2] (8 mg/kg, apparent at 5 min following injection) is recorded as “approximately 24 hr”.
